# A melting point compilation (Tetko et al.; mined from patent text by program, amines drawn as free bases though some values may be those of a salt)
row,SMILES,melting point
1,CCOC(=O)C(C)(C)Cc1c(SC(C)(C)C)c2cc(O)ccc2n1Cc1ccc(Cl)cc1,151 to 152 °C
2,CC1Cc2ccc(Cl)cc2C(c2ccc(N)cc2)=NN1C(=O)C(F)(F)F (centres undefined),165 to 167 °C
3,Cc1nc(C)c(-c2cccc(OC3SCC(O)C(O)C3O)c2)s1 (centres undefined),158 to 164 °C
4,CC(=O)c1ccc2c(c1)c1ccccc1n2CCCCl,109 to 111 °C
5,Cc1ccccc1Oc1nnc(Cl)c(C)c1O,209 to 213 °C
6,CC(C)(C)c1cc(-c2c[nH]c(CNC(=O)OCc3ccccc3)n2)cc(C(C)(C)C)c1O,212 to 213 °C
7,CCn1c(=O)c2c(nc(/C=C/c3cc(OC)c4c(c3)OCO4)n2C)n(CC)c1=O,202 °C
8,COCCCOc1cc(C[C@@H](CBr)C(C)C)ccc1OC,52 to 53 °C
9,CSc1ccccc1-c1ccc(C(=O)N2Cc3ccc(C(=O)NCc4cccnc4)n3Cc3ccccc32)cc1,172 to 175 °C
10,O=C(O)COc1ccc(SCc2cccc(OCc3ccc(C(F)(F)F)cc3)c2)c2c1CCC2,145 to 146 °C
11,CCS(=O)(=O)c1nsc(NC(=O)N(C)C)c1C#N,188 to 189 °C
12,CCOC(=O)/C=C(C)/C=C/C=C(\C)C1=Cc2cc(C)cc(C)c2OC1,122 °C
13,Cc1ccc(NC(=O)c2c(Cl)cccc2Cl)c2nccc(N3CCN(C)C3=O)c12,262 to 264 °C
14,C#Cc1cc2c(Nc3ccc4[nH]ccc4c3)ncnc2cc1OC,176 °C
15,Cc1ccccc1NC(C(=O)O)c1c(Cl)ccc(Cl)c1Cl (centres undefined),193 °C
16,N#Cc1ccc(CCn2ccn([C@H]3CCc4c(F)cc(F)cc4C3)c2=S)cc1,130 to 133 °C
17,CC(C)(C)c1cc(-n2nc3c(Br)ccc(Br)c3n2)c(O)c(C(C)(C)C)c1,244 to 246 °C
18,COc1cc(OC)n2nc(S(=O)(=O)Nc3c(Cl)cccc3Cl)nc2c1,252 to 253 °C
19,CC(=O)N1CCc2cc(Br)cc(N)c21,154 to 155 °C
20,CCOCc1nc2c(N)nc3cc(-c4cccnc4)ccc3c2n1CCNC(=O)C(C)C,213 to 215 °C
21,CCOC(Cc1ccc(OCCN2C(=O)COc3ccccc32)cc1)C(=O)O (centres undefined),90 to 93 °C
22,Cc1cc(/C=C/C(c2cc(Cl)cc(Cl)c2)C(F)(F)F)ccc1C(=O)NCc1cncnc1 (centres undefined),141 to 144 °C
23,N#Cc1ccc(-c2cn(-c3ccc(OC(F)(F)F)cc3)cn2)cc1,155 °C
24,CCn1c(C(C)NS(=O)(=O)c2ccc(Cl)c(Cl)c2)cnc1Sc1ccc(C)cc1 (centres undefined),173 to 174 °C
25,Cn1nc2c(oc3ccccc32)c1NCC(F)(F)F,120 to 121 °C

row,SMILES,melting point
1,CCn1nccc1-c1ccc2[nH]c3c(cc(-c4ccc(Cl)cc4Cl)c(=O)n3C)c2c1,255 to 258 °C
2,CCOC(=O)c1cc(OC)c(Cc2cnc(N)nc2N)c(OC)c1,201 to 202 °C
3,COC(C)(OC)c1nn(-c2c(Cl)cc(C(F)(F)F)cc2Cl)c(N)c1SC,149 °C
4,CN(c1ncccc1C#N)C1CCN(Cc2ccccc2)CC1,58 to 60 °C
5,CCOC(=O)c1cc2ccnc(N(Cc3ccccc3)Cc3ccccc3)c2[nH]1,120 to 123 °C
6,O=C(O)c1ccccc1-c1nnc(-c2ccccc2)s1,178 to 180 °C
7,Cc1ccc2ccc3ccccc3c2c1O,88 to 92 °C
8,CN(CCNC(=O)NCCSCc1csc(NC(=N)N)n1)CCN(Cc1ccc(F)cc1)c1ccccn1,132 °C
9,O=C(Cc1ccccc1)N1CCC2(Cc3ccccc3O2)C1 (centres undefined),98 to 99 °C
10,COc1ccc(Cl)cc1-n1cc[nH]c1=O,133 to 134 °C
11,CC(CC1(c2ccccc2)C=CCC=C1)OS(C)(=O)=O (centres undefined),51 to 53 °C
12,COc1ccc(C(=O)c2ccc3cc(OC)ccc3c2)c(ON=C(C)C)c1,117 to 118 °C
13,Cc1ccccc1CC(=NC#N)NC(NC(=O)Cc1ccc(Cl)cc1)C(C)(C)C (centres undefined),183 to 185 °C
14,CCc1cc2c(s1)SCCc1cc(=O)[nH]nc1-2,256 to 258 °C
15,CC(C)(C)C(=O)OCOC(=O)[C@H]1[C@@H]2CC[C@@](N)(C(=O)O)[C@@H]21,205 to 206 °C
16,COC(=O)C(C)Oc1ccc(Oc2ncc(Cl)cc2[N+](=O)[O-])cc1 (centres undefined),91 to 92 °C
17,COc1cc2c(cc1OCc1ccccc1)C1Cc3c(Cl)cc(OC)c(OCCO)c3CN1CC2 (centres undefined),154 °C
18,CCCCCCCCCC(=O)Oc1ccc(N(CC(=O)O)CC(=O)O)cc1OC(=O)CCCCCCCCC,131 to 133 °C
19,CC1(C)Cc2cccc(S(N)(=O)=O)c2S1,102 to 104 °C
20,N#CCN1CCC(NC(=O)c2cc(Cl)c(N)c3c2OCCC3)CC1,194 °C
21,CCOC(=O)c1oc2ccc(Cl)cc2c1C(=O)OCC,33 to 35 °C
22,O=C(O)COc1ccc2c(-c3ccc(O)cc3F)noc2c1Cl,216 to 218 °C
23,CC1(C)CCC(C)(C)N1CC(O)COc1cc2ccccc2c(=O)c2ccsc12 (centres undefined),104 to 107 °C
24,COc1ccc(CCNC(=O)CCCCC(=O)NCCc2ccc(OC)c(OC)c2CCc2cccc(OC)c2)cc1,153 to 155 °C
25,CCOC(=O)C(NC(=O)c1ccc(C)cc1)C(=O)OCC,98 to 99 °C

row,SMILES,melting point
1,CC(C)(C)C(=O)NCCCN(CCCNC(=O)C(C)(C)C)c1ccccc1,72 °C
2,Cc1cccc(N2Cc3ccccc3P2(=O)c2ccccc2)c1 (centres undefined),190 to 192 °C
3,CCCCCCCCN(C[C@H]1CCC[C@H](CN(CCCCCCCC)C(=O)Nc2ccc(N(C)C)cc2)C1)C(=O)Nc1ccc(N(C)C)cc1 (relative stereo),115 to 119 °C
4,O=C(c1ccccc1)N1CCC(O)CC1,91.5 to 92 °C
5,Cc1c(-c2cc(F)ccc2F)[nH]c(N)c1C#N,146 to 147 °C
6,Clc1ccc(C(Cn2ccnc2)OCc2cc(Cl)nc3ccccc23)c(Cl)c1 (centres undefined),180 to 181 °C
7,C(=C\c1nc(COc2ccc(CCCn3ncnn3)cc2)co1)/c1ccccc1,97 to 98 °C
8,Cn1cc(C(=O)C(=O)Cl)c2ccccc21,122 to 133 °C
9,CCOC(=O)C1=CC2=C(C)C(C)(OC)C=C(C)C2=N1 (centres undefined),182 to 183 °C
10,COc1cccc(C(F)(F)F)c1S(=O)(=O)Cl,86 to 88 °C
11,Cc1nnc2n1-c1ccccc1C(c1ccc(Cl)cc1)=NC2NN(C(=O)NN)C(=O)c1ccccc1 (centres undefined),243 to 245 °C
12,CN(C)c1ccc(-c2nc(Cl)c(CC(N)=O)n2Cc2ccccc2)cc1,215 to 216 °C
13,COc1cc(-c2n[nH]c(N=C(c3ccccc3)c3ccccc3)n2)c(OC)cc1C,228 °C
14,CC(C)(C)OC(=O)NCC(=O)NCC(=O)Oc1ccc(-c2nn(C3CCCC3)c3c(F)cccc23)cc1,103 to 104 °C
15,COC(=O)c1cc(Oc2c(Cl)cc(C(F)(F)F)cc2Cl)n[nH]1,114 to 116 °C
16,COC(=O)Cn1nnnc1-c1c(Cl)c(Cl)cc2[nH]c(=O)c(=O)[nH]c12,281 to 283 °C
17,CC(CN1CCN(CCc2ccc(C(=O)O)cc2)CC1)Oc1ccc(C(=O)O)cc1 (centres undefined),270 to 271 °C
18,CCC(=O)NCC[C@@H]1CCc2cc(Br)c(O)c(CCO)c21,85 to 87 °C
19,Fc1ccc(C(CCCN2CCC(c3nn(-c4ccccc4)c4cc(F)ccc34)CC2)c2ccc(F)cc2)cc1,113 to 115 °C
20,C=C(C)c1ccccc1S(N)(=O)=O,76 to 85 °C
21,O=c1ncc(Cl)cn1COCc1cccc(C(F)(F)F)c1,95 °C
22,CCc1nc2c(c(C)c(C)n3nnnc23)n1CCOCCNS(=O)(=O)CCCCl,126 to 129 °C
23,O=C(O)c1cccc2c1CCCC2O (centres undefined),160 to 162 °C
24,CC(=O)SCC(Cc1ccccc1)C(=O)Nc1cc(C(=O)O)ccc1C (centres undefined),214 to 216 °C
25,Cc1cncc(C)c1-c1c(C)cc(C(C#N)C#N)cc1C,58 to 60 °C

row,SMILES,melting point
1,Cc1ccc(CCC(=O)c2ccc(N3CCN(c4ccncc4)CC3)cc2)cc1,130 to 132 °C
2,CCCCCCCCCCCCCCCCCCOc1cc(N)cc(N(CC(=O)O)CC(=O)O)c1,185 to 195 °C
3,COc1cc(C)nc(NC(=O)NS(=O)(=O)c2ccccc2C2CC2(Cl)Cl)n1 (centres undefined),187 to 191 °C
4,Nc1ccc(CNC(=O)OCc2ccccc2)cc1,60 to 64 °C
5,COCOc1cc(C=O)ccc1OCc1nc(-c2ccco2)oc1C,102 to 103 °C
6,COC(=O)c1c(C)oc(C)c1-c1ccc(F)cc1,34 to 35 °C
7,O=c1[nH]c2ccc(Br)cc2cc1Cc1ccccc1,263 °C
8,CC(C)=Cc1ccc(/C=C/CCl)cc1,48 to 50 °C
9,CC(=O)Nc1cc(C(F)(F)F)ccc1N1CCc2ccccc21,153 to 155 °C
10,O=S(=O)(Nc1nc(Cl)cnc1OCc1ccco1)c1ccc(Cl)s1,130 to 133 °C
11,COc1ccc(Br)cc1-c1cc(-c2ccc(Br)cc2)on1,127 to 159 °C
12,COCCS(=O)(=O)c1ccc(F)c(C#Cc2cc(Cl)ccc2OCC(=O)O)c1,125 to 128 °C
13,C#Cc1ccc(-c2c(C)nnc(Cl)c2-c2c(F)cc(F)cc2F)cc1,174 to 175 °C
14,CC1(C)CCC(C)(C)c2cc(-c3cc(-c4ccc(C(=O)O)cc4)ccc3OCCCCN)ccc21,250 °C
15,COc1ccc2c(C)c(CCO)c(=O)oc2c1OC,113 to 114 °C
16,C=CCc1cccc(-c2nc3n(C4CCCC4)[nH]c(CC)c-3c(=O)n2)c1O,> 280 °C
17,Cc1c(-c2ccc(F)cc2)nc(-c2ccccc2)n1C(C)C,161 to 162 °C
18,O=C(NCC1Cc2cccc(-c3c(Cl)cccc3Cl)c2O1)OCc1ccccc1 (centres undefined),198 to 200 °C
19,Cc1c2cnc3c([N+](=O)[O-])cccc3c2nn1C,235 to 236 °C
20,CCNC(=O)c1ccccc1NS(=O)(=O)C(F)(F)F,85.5 to 87 °C
21,COCOc1cc(Cl)ccc1-c1cc(-c2cccc(NC(=O)Cn3ccnc3)c2)c(C#N)c(NC(=O)c2ccco2)n1,157 to 160 °C
22,O=[N+]([O-])c1cccc2c(Br)cc3nc(O)c(O)nc3c12,> 300 °C
23,CCOC(=O)C1=C(C)NC(C#N)=C(C(=O)OCC)C1c1ccco1 (centres undefined),139 to 141 °C
24,CCCCCCC(C)(C)c1ccc([C@@H]2CC(=O)C[C@H](C)C2)c(O)c1 (relative stereo),95 to 98 °C
